Measured values taken from PubChem BioAssay AID1508591.

Conditions: rat; liver microsomes; pH 7.4; 15.0 min; 1.0 µM

SMILES | half-life [min]
COc1ccc(-c2nc3ccccc3s2)cc1NC(=O)c1ccc(F)cc1 | > 30
Cn1nnnc1SCCCNCc1cccc(OCc2ccccc2Cl)c1 | 1.72
O=C(Nc1nc(-c2ccccc2)cs1)c1ccncc1NS(=O)(=O)c1cccc2cccnc12 | 7.4
Cc1ccccc1S(=O)(=O)N1CCc2cc(-c3nc(NC(=O)Cc4ccc5c(c4)OCO5)sc3C)ccc21 | 5
CC(=O)N1CCc2c(sc3c2c(=O)n(-c2ccccc2)c(=O)n3CC(=O)c2ccccc2)C1 | > 30
O=C(O)CCNc1cc(N2CCc3ccccc3CC2)nc(-c2cccnc2)n1 | > 30
Cn1cc(S(=O)(=O)N2CCOCC2)cc1C(=O)Nc1ccc(Cl)c(C(F)(F)F)c1 | > 30
CCNC(=O)C[C@@H]1N=C(c2ccc(Cl)cc2)c2cc(OC)ccc2-n2c(C)nnc21 | > 30
COc1ccc(/C=C2/C(=O)Nc3ccccc32)cc1O | > 30
CNC1CCC(N(Cc2ccc(OC)c(-c3ccc(C#N)cc3)c2)C(=O)c2sc3ccccc3c2Cl)CC1 (stereo unspecified) | > 30
Cc1ccc(-n2nc3c(N4CCCC(C(=O)NCc5ccccc5C)C4)nnc(C)c3c2C)cc1 (stereo unspecified) | 2.1
CCOc1ccc(S(=O)(=O)NCc2cccnc2)cc1NC(=O)c1ccccc1F | 2.82
COc1ccc(C2Nc3ccccc3C(=O)N2Cc2ccco2)cc1COc1c(C)cc(NC(C)=O)cc1C (stereo unspecified) | 1.6
Cc1ccc2nc(-c3cc(NC(=O)c4ccc5c(c4)OCCO5)ccc3Cl)oc2c1 | > 30
Cc1ccc(S(=O)(=O)N2CCCc3cc(NS(=O)(=O)c4ccccc4)ccc32)cc1 | 1
CN(C)CC(=O)NC1CCCc2c1cnn2-c1ccc(F)cc1F (stereo unspecified) | > 30
CC1CN(c2ccc(Nc3nc(-c4ccncc4)nc4ccccc34)cc2F)CC(C)O1 (stereo unspecified) | 5
CCC1=Nc2cc(C(=O)NCCCOC)ccc2Sc2ccc(Br)cc21 | 5.46
Cc1ccc(-c2cc(C(=O)Nc3cccc(S(=O)(=O)Nc4nccs4)c3)c3ccccc3n2)cc1C | 14
Cc1ccnc(NC(=S)N2CCN(c3cc(F)cc(Cl)c3)CC2)c1 | 21
Cc1ccc(-c2cc(C(=O)Nc3ccc(-c4nn[nH]n4)cc3)c3ccccc3n2)cc1C | > 30
c1cnc(N2CCN(Cc3c[nH]c4ccccc34)CC2)nc1 | 1.6
COc1cccc(-c2noc(Nc3ccc4c(c3)OCCO4)n2)c1 | 20.7
Clc1ccc2ncc(-c3cccc(NC4CNC4)n3)n2c1 | 13.6

SMILES | half-life [min]
N#Cc1cccc(NC(=O)c2sc3nc4c(cc3c2N)N2CCC4CC2)c1 | 25.6
C[C@@]1(C(=O)Nc2ccc(F)nc2)CCCN1c1nc(Nc2cc(C3CC3)[nH]n2)c2cccn2n1 | 8.35
CCOC(=O)c1ccc2c(c1)c(C(C)=O)c(C)n2-c1ccc(OC)cc1 | 1.5
Cc1cc(C(=O)Nc2nnc(C3CCCCC3)s2)cs1 | 7.1
CN1Cc2c(ccc3c2OCO3)[C@@H]2[C@H]1c1cc3c(cc1C[C@@H]2O)OCO3 | 2.12
Oc1ccc(C(=S)N2CCN(c3cccc(Cl)c3)CC2)cc1 | 1.7
Cc1cccc(S(=O)(=O)Nc2cnccc2C(=O)Nc2nc(-c3ccccc3)cs2)c1 | 6
COc1ccc(-n2nc(C3CCCN([S+](=O)([O-])c4cccc(C(F)(F)F)c4)C3)[nH]c2=O)cc1 (stereo unspecified) | 6.33
COc1ccc(CNc2ccc(S(=O)(=O)Nc3nccs3)cc2)c(O)c1 | 3.9
Cc1ccc(S(=O)(=O)Nc2ccncc2C(=O)Nc2nc(-c3ccccc3)cs2)cc1 | > 30
O=C1Cc2cc(C(=O)c3ccco3)ccc2N1 | 20
COc1ccccc1NC(=O)c1oc2ccccc2c1NC(=O)Cc1cccs1 | 6.77
Cc1cc(C)nc(NC(=S)N2CCN(c3cccc(OC(F)F)c3)CC2)c1 | > 30
CS(=O)(=O)c1ccc(-c2cnc(NCc3ccco3)n3cnnc23)cc1 | > 30
CCC(=O)NC(c1cccs1)c1cc([N+](=O)[O-])c2cccnc2c1O (stereo unspecified) | > 30
Cc1ccc(S(=O)(=O)Nc2cnccc2C(=O)Nc2ccc(-n3cncn3)cc2)cc1 | 21
COc1ccc(C(=O)NC2CCN(c3cnn(CC4CC4)c(=O)c3)CC2)c(OC)n1 | 13.9
Cc1ccc(S(=O)(=O)Nc2ccccc2C(=O)Nc2nc(-c3ccccc3)co2)cc1 | 3.9
O=c1ncn2nc(Sc3ccc(F)cc3F)ccc2c1-c1c(Cl)cccc1Cl | > 30
COc1cccc(CNC(=O)CCCn2nc(C)c3c(C)n(-c4ccc(C)cc4)nc3c2=O)c1OC | 1.07
Cc1ccc(S(=O)(=O)Nc2cnccc2C(=O)Nc2nc(-c3ccccc3Cl)cs2)cc1 | 13
CCOc1ccc(NC(=O)CC2C(=O)N(c3ccc(F)cc3)C(=O)N2CCc2sccc2C)cc1 (stereo unspecified) | 1.33
CCOc1ccc(CNC(=O)CCCn2nc(C)c3c(C)n(-c4ccc(C)cc4)nc3c2=O)cc1 | 3.01
CC(C)c1ccccc1-c1ncc(F)c(NCc2ccc(-c3ccn[nH]3)cc2)n1 | 2.8

SMILES | half-life [min]
Cc1ccccc1C(=O)Nc1sc2c(c1C(=O)NCc1ccco1)CCC(C(C)(C)C)C2 (stereo unspecified) | 23.9
CCC(Sc1nc2ccccc2c2nc(CCc3c(C)n[nH]c3C)nn12)C(=O)Nc1ccc(F)cc1 (stereo unspecified) | 4.01
COc1ccc(Nc2nc(-c3cccc(OC)c3)no2)cc1 | 20.3
S=C(NCCCc1cnc[nH]1)NCCCN(Cc1ccc(Cl)c(Cl)c1)c1ccc(Br)cn1 | > 30
COc1ccc(-n2nc(C3CCN(C(=O)Cc4ccc(F)cc4)CC3)[nH]c2=O)cc1 | 7.87
COc1ccc(C2c3c(oc4ccc(C)cc4c3=O)C(=O)N2CCCN2CCOCC2)cc1OC (stereo unspecified) | 7.59
CCOC(=O)N1CCc2c(sc(NCc3sccc3C)c2C(=O)Nc2cc(Cl)ccc2OC)C1 | 9.8
COc1cccc(C(=O)Nc2ccc3c(N4CCOCC4)ncnc3c2)c1 | 27.3
C[C@@H](NC(=O)c1ncnc(N)c1Cl)c1ncc(C(=O)Nc2cc(C(F)(F)F)c(Cl)cn2)s1 | > 30
NC(=O)C1CCN(c2nc(-c3ccccc3[N+](=O)[O-])cs2)CC1 | 3.9
CC1(C)CCC(c2ccc(Cl)cc2)=C(CN2CCN(c3ccc(C(=O)NS(=O)(=O)c4ccc(N[C@H](CCN5CCOCC5)CSc5ccccc5)c(S(=O)(=O)C(F)(F)F)c4)cc3)CC2)C1 | > 30
O=C1CN(C(=O)CCC(=O)N2CCc3c(nc4cc(-c5ccccc5)[nH]n4c3=O)C2)c2ccccc2N1 | > 30
CN1CCN(CCCN2c3ccccc3Sc3ccc(S(=O)(=O)N(C)C)cc32)CC1 | 1.95
Fc1ccc(CN2CCNc3cc(Nc4ccccc4)ncc3C2)cc1F | 2.28
N=c1c2ccccc2nnn1-c1ccc(C(F)(F)F)cc1 | > 30
c1cc(-c2cc(-c3ccncc3)c3cncn3c2)c2[nH]ncc2c1 | 10.1
O=C1Nc2ccc(C(=O)c3ccco3)cc2/C1=C/c1cc(Cl)c(O)c(Cl)c1 | 7.7
Cc1ccnc(NC(=S)N2CCN(c3ncc(C(F)(F)F)cc3Cl)CC2)c1 | > 30
Nc1c(C(=O)Nc2ccc(Cl)c(C(F)(F)F)c2)sc2nc3c(cc12)N1CCC3CC1 | 22.1
COc1cccc(C(=O)NCCSc2c(-c3ccc(F)cc3)[nH]c3ccccc23)c1OC | 1.26
CC1=C(C(=O)Nc2nccs2)C(c2ccccc2Br)N=C(Nc2nc3ccccc3o2)N1 (stereo unspecified) | 27
O=C(CCS(=O)(=O)c1nc(-c2cccs2)cc(C(F)(F)F)n1)Nc1ccc(OC(F)(F)F)cc1 | 2.45
Cc1nc2ccc(C(=O)N3CCC4(CC3)CC(=O)c3c(cnn3C(C)C)C4)cc2[nH]1 | > 30
